Assay results: patent US20260198495A1, “BINARY INSECTICIDE COMPOSITION AND USE THEREOF” (SHENYANG SINOCHEM AGROCHEMICALS R & D CO., LTD., priority 2022, published 2026)
Values after ≈ are worked out from the molar mass of the structure shown.

Experiments:
Type in all cases: in vivo
[1] = tested on: 3rd-instar larvae of Agrotis ipsilon (Rottemberg); assay: Joint toxicity of I-72 + SYP-1620, fludioxonil, insect-dipping, Example 80, Table 80
Description: (§1) Preparation of the pesticide solution: according to different test requirements, the test samples were accurately weighed respectively with an electronic analytical balance. The technical pesticides were dissolved in acetone, and then diluted with 0.1% Tween 80 water into a series of pesticide solutions with a certain concentration gradient according to the experimental design dosage.
(§2) The target insects were dipped into the pesticide solution for 10 s and then taken out. Excess pesticide solution was absorbed with filter paper. […] A treatment without the pesticide was set as the blank control.
(§3) The number of dead and live insects was investigated 72 hours later. The corrected mortality rate was calculated using the Abbott's formula, and statistical analysis was performed with the DPS data processing software to obtain the toxicity regression equation and LC50 value of each single test pesticide and each mixture of different ratios.

[2] = tested on: Unaspis yanonensis Kuwana nymphs; assay: Joint toxicity of I-72 + afidopyropen, Example 76, Table 76; conditions: A = compound I-72, B = afidopyropen; citrus leaf dipping; 120 hours
Description: Test target: Unaspis yanonensis Kuwana nymphs.
as §1
Experimental method: the activity of the mixture against Unaspis yanonensis Kuwana nymphs on citrus was determined by adopting the dipping method. First, the collected citrus leaves with Unaspis yanonensis Kuwana nymphs were treated with the pesticide solution in the order from low dosage to high dosage according to the experimental design. After air-drying, the petioles were kept moist with degreased cotton, and then the leaves were placed in a Petri dish, with 3 replicates for each treatment. In addition, a blank control was set up.
(§4) The treated test materials were placed in an observation room, and the temperature, humidity and illumination of the observation room could be adjusted as needed. The number of dead and live insects was investigated 120 hours later. […] Then, the co-toxicity coefficient of each ratio was calculated using the Sun Y-P method to evaluate the mixing effect (the same as in Example 1).

[3] = tested on: adult Tetranychus urticae Koch; assay: Joint toxicity of I-72 + cyetpyrafen, Example 85, Table 85; conditions: A = compound I72, B = cyetpyrafen; potted-seedling spraying; 72 hours
Description: Test target: adult Tetranychus urticae Koch, a sensitive strain reared indoors.
as §1
(§5) Experimental method: the activity of the mixture against the adult Tetranychus urticae Koch was determined by adopting the potted-seedling spraying method. First, the adult Tetranychus urticae Koch of uniform size were transferred onto the leaves of kidney bean seedlings at the stage when the first pair of true leaves was fully expanded. After the adult mites had stabilized, the base number was counted. Then, the uniform spraying was performed with the pesticide solution in the order from low to high dose according to the experimental design, with 1.5 mL for each seedling and 3 replicates for each treatment. […]
as §4, with “needed.” for “needed. The number of dead and live insects was investigated 120 hours later.”

[4] = tested on: Thrips flavus Schrank nymphs; assay: Joint toxicity of I-72 + flonicamid, Example 78, Table 78; conditions: A = compound I-72, B = flonicamid; eggplant seedling spraying; 48 hours
Description: Test target: Thrips flavus Schrank nymphs.
as §1
Experimental method: first, eggplant seedlings with Thrips flavus Schrank were selected, and the base number was counted. Then, uniform spraying was performed with the pesticide solution in the order from low to high doses according to the experimental design, with 2 mL for each seedling and 3 replicates for each treatment. In addition, a blank control was set up.
as §4, with “48” for “120”

[5] = tested on: Aphis gossypii Glover nymphs; assay: Joint toxicity of I-72 + flonicamid, Example 74, Table 74; conditions: A = compound I-72, B = flonicamid; cotton leaf spraying; 48 hours
Description: Test target: Aphis gossypii Glover nymphs, a sensitive strain reared indoors.
as §1
(§6) Experimental method: first, cotton leaves with uniform and consistent Aphis gossypii were selected, with about 30-40 insects on each leaf. Then, they were evenly sprayed with the pesticide solution in the order from low dosage to high dosage according to the experimental design, with 1.5 mL for each leaf and 3 replicates for each treatment. In addition, a blank control was set up.
as §4, with “48” for “120”

[6] = tested on: 3rd-instar larvae of Agrotis ipsilon (Rottemberg); assay: whole plant or invertebrate; conditions: A = compound I-72, B = metalaxyl-M; insect-dipping; 72 hours
Description: Test conditions: temperature: 24-26° C., humidity: RH 60%, and illumination: L:D=14:10
as §1, §2, §3

[7] = tested on: Aphis citricola van der Goot nymphs; assay: Joint toxicity of I-72 + nicotine, Example 72, Table 72; conditions: A = compound I-72, B = nicotine, apple leaf spraying, 48 hours
Description: Test target: Aphis citricola van der Goot nymphs.
as §1
as §6, with “apple” for “cotton”, “citricola van der Goot” for “gossypii”
as §4, with “48” for “120”

[8] = tested on: Myzus persicae (Sulzer) nymphs; assay: Joint toxicity of I-72 + pymetrozine, Example 73, Table 73; conditions: in Brassica oleracea, 48 h
Description: Test target: Myzus persicae (Sulzer) nymphs, a sensitive strain reared indoors.
as §1
as §6, with “cabbage” for “cotton”, “Myzus persicae (Sulzer)” for “Aphis gossypii”, “mL of the solution” for “mL”
as §4, with “48” for “120”, “effect,” for “effect (the same”, “1.” for “1).”

[9] = tested on: 3rd-instar larvae of Ostrinia furnacalis Guenee; assay: Joint toxicity of I-72 + pymetrozine, Example 79, Table 79; conditions: in Zea mays, 72 h
Description: Test target: 3rd-instar larvae of Ostrinia furnacalis Guenee.
as §1
Experimental method: first, tender corn stems were selected and dipped in the prepared pesticide solution for 10 s in the order from low dosage to high dosage according to the experimental design. After natural air-drying in the shade, they were placed in a 9-cm-diameter Petri dish with filter paper, and uniform and healthy test insects were introduced, with 10 insects for each treatment and 3 replicates for each treatment. In addition, a blank control was set up.
as §4, with “72” for “120”

[10] = tested on: adult Bemisia tabaci (Gennadius); assay: Joint toxicity of I-72 + pyraclostrobin, cotton seedling spraying, Example 83, Table 83; conditions: 72 h
Description: as §1
The corrected mortality rate was calculated using the Abbott's formula, and statistical analysis was performed with the DPS data processing software to obtain the toxicity regression equation and LC50 value of each single test pesticide and each mixture of different ratios.

[11] = tested on: adult Tetranychus cinnabarinus (Boisduval); assay: Joint toxicity of I-72 + pyridaben, Example 84, Table 84; conditions: 72 h
Description: Test target: adult Tetranychus cinnabarinus (Boisduval), a sensitive strain reared indoors.
as §1
as §5, with “adult Tetranychus cinnabarinus (Boisduval) was determined” for “adult Tetranychus urticae Koch was determined”, “adult Tetranychus cinnabarinus of uniform” for “adult Tetranychus urticae Koch of uniform”
as §4, with “needed.” for “needed. The number of dead and live insects was investigated 120 hours later.”, “effect,” for “effect (the same”, “1.” for “1).”

[12] = tested on: Bemisia tabaci (Gennadius) nymphs; assay: Joint toxicity of I-72 + pyrifluquinazon, Example 77, Table 77; conditions: A = compound I-72, B = pyrifluquinazon; cotton leaf-disk spraying; 96 hours
Description: (§7) Test target: Bemisia tabaci (Gennadius) nymphs, a sensitive strain reared indoors.
as §1
as §6, with “neat” for “uniform”, “Bemisia tabaci (Gennadius) nymphs” for “Aphis gossypii”, “selected and made into leaf disks,” for “selected,”, “20” for “30-40”, “leaf disk.” for “leaf.”
as §4, with “96” for “120”

[13] = tested on: Bemisia tabaci (Gennadius) nymphs; assay: Joint toxicity of I-72 + thiacloprid, Example 71, Table 71; conditions: in Gossypium hirsutum, 96 h
Description: as §7, §1
as §6, with “neat” for “uniform”, “Bemisia tabaci (Gennadius) nymphs” for “Aphis gossypii”, “selected and made into leaf disks,” for “selected,”, “20” for “30-40”, “leaf disk.” for “leaf.”
as §4, with “96” for “120”

[14] = tested on: Nilaparvata lugens (Stal) nymphs; assay: Joint toxicity of I-72 + triflumezopyrim, Example 75, Table 75; conditions: A = compound I-72, B = triflumezopyrim; potted-seedling spraying; 72 hours
Description: Test target: Nilaparvata lugens (Stal) nymphs, a sensitive strain reared indoors.
as §1
Experimental method: the activity of the mixture against the Nilaparvata lugens (Stal) nymphs was determined by adopting the potted-seedling spraying method. First, rice seedlings were planted in culture pots. Uniform spraying was performed with the pesticide solution in the order from low dosage to high dosage according to the experimental design, with 2 mL for each seedling. Then, Nilaparvata lugens nymphs of uniform size were transferred onto the rice seedlings, with 3 replicates for each treatment. In addition, a blank control was set up.
as §4, with “72” for “120”

SMILES: CNC(=O)/C(=N/OC)c1ccccc1CO/N=C(C)/C=C/c1c(Cl)cccc1Cl [SYP-1620]
- LC50 ([1]; A = compound I-72, B = SYP-1620, 72 hours): 361.2037 µg/mL

SMILES: C[C@]1(COC(=O)C2CC2)[C@@H]2C[C@H](O)[C@@]3(C)Oc4cc(-c5cccnc5)oc(=O)c4[C@H](O)[C@@H]3[C@@]2(C)CC[C@@H]1OC(=O)C1CC1 [afidopyropen]
- LC50 [2]: 2.8361 µg/mL

SMILES: CCn1nc(C)cc1/C(OC(=O)C(C)(C)C)=C(/C#N)c1ccc(C(C)(C)C)cc1 [cyetpyrafen]
- LC50 [3]: 0.6118 µg/mL

SMILES: N#CCNC(=O)c1cnccc1C(F)(F)F [flonicamid]
- LC50 [4]: 50.8013 µg/mL
- LC50 [5]: 2.3954 µg/mL

SMILES: N#Cc1c[nH]cc1-c1cccc2c1OC(F)(F)O2 [fludioxonil]
- LC50 ([1]; Agrotis ipsilon, A = compound I-72, B = fludioxonil, 72 hours, read-out: LC50): 391 µg/mL

SMILES: COCC(=O)N(c1c(C)cccc1C)[C@H](C)C(=O)OC [metalaxyl-M]
- LC50 [6]: 401.2975 µg/mL (≈ 1440 µM)

SMILES: CN1CCC[C@H]1c1cccnc1 [nicotine]
- LC50 [7]: 8.19 µg/mL

SMILES: CC1=NNC(=O)N(/N=C/c2cccnc2)C1 [pymetrozine]
- LC50 [8]: 5.51 µg/mL
- LC50 [9]: 300 µg/mL

SMILES: COC(=O)N(OC)c1ccccc1COc1ccn(-c2ccc(Cl)cc2)n1 [pyraclostrobin]
- LC50 [10]: 424 µg/mL

SMILES: CC(C)(C)c1ccc(CSc2cnn(C(C)(C)C)c(=O)c2Cl)cc1 [pyridaben]
- LC50 [11]: 10.8 µg/mL

SMILES: CC(=O)N1C(=O)N(NCc2cccnc2)Cc2cc(C(F)(C(F)(F)F)C(F)(F)F)ccc21 [pyrifluquinazon]
- LC50 [12]: 10.6205 µg/mL

SMILES: N#C/N=C1\SCCN1Cc1ccc(Cl)nc1 [thiacloprid]
- LC50 [13]: 6.26 µg/mL

SMILES: O=c1c(-c2cccc(C(F)(F)F)c2)c([O-])[n+](Cc2cncnc2)c2ccccn12 [triflumezopyrim]
- LC50 [14]: 0.8838 µg/mL
